{"source": "PubChem BioAssay AID2060486", "about": "(Molecular Pharmacology Branch, DTP, NCI, 2025)", "system": "IGROV1 complex spheroids (HUVEC, MSC), viability % test/control", "assay": "Anticancer human tumor IGROV1 cell line growth inhibition [GQUAD];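 note: spheroids exposed to compounds for 7 days before readout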", "conditions": "for viability, T/C: stronger effect = lower value", "source_text": "DNA G-quadruplex Stabilizer Agents in Combinations in Complex Spheroids\nA high-throughput screen of multi-cell type tumor spheroids was designed to identify active combinations of DNA G-quadruplex stabilizer agents and targeted small molecules. Complex spheroids include a stromal component modeled by human endothelial cells (HUVEC) and fibroblasts modeled by human mesenchymal stem cells (MSCs). The concentration ranges selected for each drug and investigational agent were based upon clinically achievable concentrations if the clinical Cmax of the agent was known.\nCompounds. The drugs and investigational agents: pidnarulex (CX-5461; NSC782164), APTO-253 (NSC789042), BRACO-19 (NSC847499), peposertib (NSC802822), ceralasertib (NSC780249), elimusertib (NSC800525), camonsertib (NSC841442), AZD-1390 (NSC803789), olaparib (NSC753686), talazoparib (NSC767125), ART-558 (NSC835418), sotorasib (NSC818433), MRTX-1133 (NSC836407), SN-38 (NSC673596), topotecan (NSC609699), etoposide (NSC141540), doxorubicin (NSC123127), gemcitabine (NSC613327), 5-fluorouracil (NSC19893), paclitaxel (NSC125973), vemurafenib (NSC761431), panobinostat (NSC761190), R-306465 (JNJ-16241199; NSC773264), adavosertib (NSC754352), TP-3654 (NSC805149), carboplatin (NSC241240), KSQ-4279 (NSC840948), and staurosporine (NSC755774) were obtained from the National Cancer Institute (NCI) Developmental Therapeutics Program Chemical Repository (34). The FDA-approved anticancer drug set is available from the NCI Developmental Therapeutics Program. […] The stock solutions were prepared in dimethyl sulfoxide (DMSO, Sigma-Aldrich, St. Louis, MO, cat. D2650) at 800-fold the tested concentration and stored at -70 degrees C prior to their use. All drugs and investigational agents were tested over a range starting from a high concentration at or near the clinical Cmax and decreasing in half-log increments. If the clinical Cmax for an agent had not been determined, the highest concentration tested was 10 microM.\n2.3 Cell Culture. All cells were maintained in an incubator at 37 degrees C and 5% CO2 with 95% humidity. The PDC lines were cultured according to standard operating procedures established by the NCI PDMR. All PDCs were thawed and cultured in Matrigel-coated flasks prepared with a working solution of 1X Ham's F-12 nutrient mix, without supplementation (Invitrogen, cat. 11765054), 100 U/mL penicillin-streptomycin (Invitrogen, cat. 15140122), and 2.5% Matrigel (Corning Inc., cat. 354248) for the first three passages. The 857933-349-R-J2-PDC line was cultured in 6C/Colon 1B media, which includes advanced DMEM/F-12 (Thermo Fisher Scientific, cat. 12634028), 10 mM HEPES (Thermo Fisher Scientific, cat. 15630080), 1X GlutaMAX supplement (Thermo Fisher Scientific, cat. 35050061), 0.1 mg/mL primocin (InvivoGen, cat. ant-pm-2), 10% defined fetal bovine serum, heat inactivated (HyClone Laboratories Inc., cat. SH30070.03HI), 50% L-WRN conditioned media (ATCC, cat. CRL-3276), 1.25 mM N-Acetyl-L-cysteine (Sigma-Aldrich, cat. A9165), 10 mM nicotinamide (Sigma-Aldrich, cat. N0636), 1X B-27 supplement (Thermo Fisher Scientific, cat. 17504044), 1X N-2 supplement (Thermo Fisher Scientific, cat. 17502048), 10 microM Y-27632 dihydrochloride (Tocris Bioscience, cat. 1254), and 50 ng/mL human EGF recombinant protein (Thermo Fisher Scientific, cat. PHG0311). The 485176-168-R4-J1-PDC line was cultured in Panc media, which includes all 6C/Colon 1B media components plus 100 ng/mL human FGF-10 (Thermo Fisher Scientific, cat. 100-26), 500 nM SB-431542 (Selleckchem, cat. S1067), and gastrin (Tocris, cat. 3006).\n[…]", "note": "Several values for one entry are separate records, joined by “and”; a condition that tells them apart may be missing. Identical values can stand only once."}
{"smiles": "C=CCn1c(=O)c2cnc(Nc3ccc(N4CCN(C)CC4)cc3)nc2n1-c1cccc(C(C)(C)O)n1", "values": [{"measurement": "viability, T/C", "setting": "compound 0.0316 µM", "value": "104% and 89% and 99.3%"}, {"measurement": "viability, T/C", "setting": "compound 0.1 µM", "value": "65.7% and 69.2% and 68.7%"}, {"measurement": "viability, T/C", "setting": "compound 0.316 µM", "value": "13.4% and 17.4% and 11.9%"}, {"measurement": "viability, T/C", "setting": "compound 1 µM", "value": "3.03% and 3.13% and 2.69%"}, {"measurement": "viability, T/C", "setting": "compound 3.16 µM", "value": "2.56% and 2.47% and 2.43%"}, {"measurement": "viability, T/C", "setting": "compound 10 µM", "value": "1.88% and 1.86% and 2.35%"}, {"measurement": "IC50", "setting": "curve of compound", "value": "141 nM and 153 nM and 146 nM"}]}
{"smiles": "CCc1c2c(nc3ccc(O)cc13)-c1cc3c(c(=O)n1C2)COC(=O)[C@]3(O)CC", "note": "+ Cc1[nH]c2ccc(F)cc2c1-c1nc2c3cccnc3c3ncccc3c2[nH]1", "values": [{"measurement": "IC50", "setting": "curve of first compound, second compound 0.0316 µM", "value": 1.23, "unit": "nM"}, {"measurement": "IC50", "setting": "curve of first compound, second compound 0.1 µM", "value": 1.22, "unit": "nM"}, {"measurement": "IC50", "setting": "curve of first compound, second compound 0.316 µM", "value": "< 0.999", "unit": "nM"}, {"measurement": "IC50", "setting": "curve of first compound, second compound 1 µM", "value": "< 0.999", "unit": "nM"}, {"measurement": "IC50", "setting": "curve of first compound, second compound 3.16 µM", "value": "< 0.999", "unit": "nM"}, {"measurement": "IC50", "setting": "curve of first compound, second compound 10 µM", "value": "< 0.999", "unit": "nM"}, {"measurement": "viability, T/C", "setting": "second compound 0.0316 µM, first compound 0.000999 µM", "value": 57.7, "unit": "%"}, {"measurement": "viability, T/C", "setting": "second compound 0.0316 µM, first compound 0.00316 µM", "value": 15.4, "unit": "%"}, {"measurement": "viability, T/C", "setting": "second compound 0.0316 µM, first compound 0.00999 µM", "value": 10.2, "unit": "%"}, {"measurement": "viability, T/C", "setting": "second compound 0.0316 µM, first compound 0.0316 µM", "value": 6.35, "unit": "%"}, {"measurement": "viability, T/C", "setting": "second compound 0.0316 µM, first compound 0.0999 µM", "value": 4.8, "unit": "%"}, {"measurement": "viability, T/C", "setting": "second compound 0.0316 µM, first compound 0.316 µM", "value": 1.3, "unit": "%"}, {"measurement": "viability, T/C", "setting": "second compound 0.1 µM, first compound 0.000999 µM", "value": 58, "unit": "%"}, {"measurement": "viability, T/C", "setting": "second compound 0.1 µM, first compound 0.00316 µM", "value": 12.6, "unit": "%"}, {"measurement": "viability, T/C", "setting": "second compound 0.1 µM, first compound 0.00999 µM", "value": 10.4, "unit": "%"}, {"measurement": "viability, T/C", "setting": "second compound 0.1 µM, first compound 0.0316 µM", "value": 6.87, "unit": "%"}, {"measurement": "viability, T/C", "setting": "second compound 0.1 µM, first compound 0.0999 µM", "value": 4.33, "unit": "%"}, {"measurement": "viability, T/C", "setting": "second compound 0.1 µM, first compound 0.316 µM", "value": 1.74, "unit": "%"}, {"measurement": "viability, T/C", "setting": "second compound 0.316 µM, first compound 0.000999 µM", "value": 36, "unit": "%"}, {"measurement": "viability, T/C", "setting": "second compound 0.316 µM, first compound 0.00316 µM", "value": 18.3, "unit": "%"}, {"measurement": "viability, T/C", "setting": "second compound 0.316 µM, first compound 0.00999 µM", "value": 10.3, "unit": "%"}, {"measurement": "viability, T/C", "setting": "second compound 0.316 µM, first compound 0.0316 µM", "value": 7.63, "unit": "%"}, {"measurement": "viability, T/C", "setting": "second compound 0.316 µM, first compound 0.0999 µM", "value": 4.58, "unit": "%"}, {"measurement": "viability, T/C", "setting": "second compound 0.316 µM, first compound 0.316 µM", "value": 1.81, "unit": "%"}, {"measurement": "viability, T/C", "setting": "second compound 1 µM, first compound 0.000999 µM", "value": 4.92, "unit": "%"}, {"measurement": "viability, T/C", "setting": "second compound 1 µM, first compound 0.00316 µM", "value": 3.7, "unit": "%"}, {"measurement": "viability, T/C", "setting": "second compound 1 µM, first compound 0.00999 µM", "value": 3.69, "unit": "%"}, {"measurement": "viability, T/C", "setting": "second compound 1 µM, first compound 0.0316 µM", "value": 2.84, "unit": "%"}, {"measurement": "viability, T/C", "setting": "second compound 1 µM, first compound 0.0999 µM", "value": 2.04, "unit": "%"}, {"measurement": "viability, T/C", "setting": "second compound 1 µM, first compound 0.316 µM", "value": 0.8, "unit": "%"}, {"measurement": "viability, T/C", "setting": "second compound 3.16 µM, first compound 0.000999 µM", "value": 4.87, "unit": "%"}, {"measurement": "viability, T/C", "setting": "second compound 3.16 µM, first compound 0.00316 µM", "value": 4.58, "unit": "%"}, {"measurement": "viability, T/C", "setting": "second compound 3.16 µM, first compound 0.00999 µM", "value": 3.82, "unit": "%"}, {"measurement": "viability, T/C", "setting": "second compound 3.16 µM, first compound 0.0316 µM", "value": 3.33, "unit": "%"}, {"measurement": "viability, T/C", "setting": "second compound 3.16 µM, first compound 0.0999 µM", "value": 1.4, "unit": "%"}, {"measurement": "viability, T/C", "setting": "second compound 3.16 µM, first compound 0.316 µM", "value": 0.62, "unit": "%"}, {"measurement": "viability, T/C", "setting": "second compound 10 µM, first compound 0.000999 µM", "value": 4.11, "unit": "%"}, {"measurement": "viability, T/C", "setting": "second compound 10 µM, first compound 0.00316 µM", "value": 3.78, "unit": "%"}, {"measurement": "viability, T/C", "setting": "second compound 10 µM, first compound 0.00999 µM", "value": 4.08, "unit": "%"}, {"measurement": "viability, T/C", "setting": "second compound 10 µM, first compound 0.0316 µM", "value": 3.15, "unit": "%"}, {"measurement": "viability, T/C", "setting": "second compound 10 µM, first compound 0.0999 µM", "value": 1.92, "unit": "%"}, {"measurement": "viability, T/C", "setting": "second compound 10 µM, first compound 0.316 µM", "value": 0.73, "unit": "%"}]}
{"smiles": "Cn1ncnc1[C@H]1c2n[nH]c(=O)c3cc(F)cc(c23)N[C@@H]1c1ccc(F)cc1", "values": [{"measurement": "viability, T/C", "setting": "compound 0.000999 µM", "value": "97.2% and 105% and 82.2%"}, {"measurement": "viability, T/C", "setting": "compound 0.00316 µM", "value": "92.2% and 77% and 90.2%"}, {"measurement": "viability, T/C", "setting": "compound 0.00999 µM", "value": "76.3% and 86.3% and 86.2%"}, {"measurement": "viability, T/C", "setting": "compound 0.0316 µM", "value": "70% and 67.1% and 66.2%"}, {"measurement": "viability, T/C", "setting": "compound 0.0999 µM", "value": "53.7% and 55% and 46.8%"}, {"measurement": "viability, T/C", "setting": "compound 0.316 µM", "value": "36.7% and 29.4% and 34.7%"}, {"measurement": "IC50", "setting": "curve of compound", "value": "128 nM and 110 nM and 77.8 nM"}]}
{"smiles": "CCc1c2c(nc3ccc(O)cc13)-c1cc3c(c(=O)n1C2)COC(=O)[C@]3(O)CC", "values": [{"measurement": "viability, T/C", "setting": "compound 0.000999 µM", "value": "50.7% and 46.3% and 39%"}, {"measurement": "viability, T/C", "setting": "compound 0.00316 µM", "value": "13.2% and 15%"}, {"measurement": "viability, T/C", "setting": "compound 0.00999 µM", "value": "10.7% and 11.2% and 9.68%"}, {"measurement": "viability, T/C", "setting": "compound 0.0316 µM", "value": "8.77% and 9.76% and 9.57%"}, {"measurement": "viability, T/C", "setting": "compound 0.0999 µM", "value": "4.33% and 4.71% and 5.08%"}, {"measurement": "viability, T/C", "setting": "compound 0.316 µM", "value": "1.32% and 1.27% and 1.78%"}, {"measurement": "IC50", "setting": "curve of compound", "value": "1 nM and < 0.999 nM"}]}
